The target of the assay is T1, human mGlu4 receptor (Homo sapiens, UniProt Q14833).
T1 construct: expressed in transfected cells; host or cells: HEK-293 (monoclonal, stably transfected)
Kind of assay: Ca2+ mobilization in vitro assay on recombinant human mGlu4 expressed in HEK293 cells (mGlu4 PAM). It is filed as cell-based. The conditions noted are these: for Emax: HEK293, maximal response in % of the maximal stimulatory effect obtained with saturating concentrations of L-AP4, read-out: Eff. (%); for EC50: HEK-293 cells, Ca2+ mobilization, L-AP4 added at EC20. As for the experimental part:
Determination of EC50 Values Using a Ca2+ mobilization in vitro Assay on Recombinant Human mGlu4 Expressed in HEK293 cells:
A monoclonal HEK-293 cell line stably transfected with a cDNA encoding for the human mGlu4 receptor was generated; for the work with mGlu4 Positive Allosteric Modulators (PAMs), a cell line with low receptor expression levels and low constitutive receptor activity was selected to allow the differentiation of agonistic versus PAM activity. Cells were cultured according to standard protocols (Freshney, 2000) in Dulbecco's Modified Eagle Medium with high glucose supplemented with 1 mM glutamine, 10% (vol/vol) heat-inactivated bovine calf serum, Penicillin/Streptomycin, 50 μg/ml hygromycin and 15 μg/ml blasticidin (all cell culture reagents and antibiotics from Invitrogen, Basel, Switzerland).
About 24 hrs before an experiment, 5×10^4 cells/well were seeded in poly-D-lysine coated, black/clear-bottomed 96-well plates. The cells were loaded with 2.5 μM Fluo-4AM in loading buffer (1×HBSS, 20 mM HEPES) for 1 hr at 37° C. and washed five times with loading buffer. The cells were transferred into a Functional Drug Screening System 7000 (Hamamatsu, Paris, France), and 11 half logarithmic serial dilutions of test compound at 37° C. were added and the cells were incubated for 10-30 min. with on-line recording of fluorescence. Following this pre-incubation step, the agonist (2S)-2-amino-4-phosphonobutanoic acid (L-AP4) was added to the cells at a concentration corresponding to EC20 with on-line recording of fluorescence; in order to account for day-to-day variations in the responsiveness of cells, the EC20 of L-AP4 was determined immediately ahead of each experiment by recording of a full dose-response curve of L-AP4.
Responses were measured as peak increase in fluorescence minus basal (i.e. fluorescence without addition of L-AP4), normalized to the maximal stimulatory effect obtained with saturating concentrations of L-AP4. Graphs were plotted with the % maximal stimulatory using XLfit, a curve fitting program that iteratively plots the data using Levenburg Marquardt algorithm. The single site competition analysis equation used was y=A+((B−A)/(1+((x/C)D))), where y is the % maximal stimulatory effect, A is the minimum y, B is the maximum y, C is the EC50, x is the log 10 of the concentration of the competing compound and D is the slope of the curve (the Hill Coefficient). From these curves the EC50 (drug concentration at which 50% of the maximal receptor activation was achieved), the Hill coefficient as well as the maximal response in % of the maximal stimulatory effect obtained with saturating concentrations of L-AP4 were calculated (see FIG. 1).
A depression of the signal observed after addition of the EC20 concentration of L-AP4was indicative of an inhibitory activity of the test compound.
(In general: A change in cytosolic calcium serves as a functional read-out for many receptors and channels.)

A word on the EC50: it is the midpoint of the concentration-response curve.

T1 sequence (Q14833 33-912): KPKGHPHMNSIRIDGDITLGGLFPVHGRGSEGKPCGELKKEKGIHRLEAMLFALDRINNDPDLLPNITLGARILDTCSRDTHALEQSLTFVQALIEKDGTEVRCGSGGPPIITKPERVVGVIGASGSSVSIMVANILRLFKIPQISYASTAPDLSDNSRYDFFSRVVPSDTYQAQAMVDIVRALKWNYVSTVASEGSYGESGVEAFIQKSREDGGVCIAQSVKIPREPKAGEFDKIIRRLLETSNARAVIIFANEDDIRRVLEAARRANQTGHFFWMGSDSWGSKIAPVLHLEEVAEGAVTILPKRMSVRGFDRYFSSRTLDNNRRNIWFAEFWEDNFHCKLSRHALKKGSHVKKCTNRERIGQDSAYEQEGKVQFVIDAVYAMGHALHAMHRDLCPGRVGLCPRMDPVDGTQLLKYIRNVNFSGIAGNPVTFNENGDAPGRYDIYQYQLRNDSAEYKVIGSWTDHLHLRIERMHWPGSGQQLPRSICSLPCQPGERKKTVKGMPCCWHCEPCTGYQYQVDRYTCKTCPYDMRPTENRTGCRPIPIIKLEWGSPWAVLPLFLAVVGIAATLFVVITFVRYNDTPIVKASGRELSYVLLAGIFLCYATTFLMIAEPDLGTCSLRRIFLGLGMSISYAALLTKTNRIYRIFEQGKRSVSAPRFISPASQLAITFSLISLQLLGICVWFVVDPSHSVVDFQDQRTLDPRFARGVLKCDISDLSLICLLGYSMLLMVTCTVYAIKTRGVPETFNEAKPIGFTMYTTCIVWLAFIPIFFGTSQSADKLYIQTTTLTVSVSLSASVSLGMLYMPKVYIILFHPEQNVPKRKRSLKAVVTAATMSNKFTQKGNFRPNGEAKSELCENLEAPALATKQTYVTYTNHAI

`CN1CCN2C(=O)N(c3c(F)cc(C#Cc4ccccc4)cc3F)C(=O)CC2(C)C1=O` (racemic) [Example 35, (9aRS)-7-[2,6-Difluoro-4-(2-phenylethynyl)phenyl]-2,9a-dimethyl-4,9-dihydro-3H-pyrazino[1,2-c]pyrimidine-1,6,8-trione]: the Emax worked out at 131% and the EC50 is 158 nM.
The corresponding values for `CC(C)N1CCN2C(=O)N(c3c(F)cc(C#Cc4ccccc4)cc3F)C(=O)CC2(C)C1=O` (racemic) [Example 36, (9aRS)-7-[2,6-Difluoro-4-(2-phenylethynyl)phenyl]-2-isopropyl-9a-methyl-4,9-dihydro-3H-pyrazino[1,2-c]pyrimidine-1,6,8-trione] are 128% and 169 nM.
The like results for `CC12CC(=O)N(c3c(F)cc(C#Cc4ccccc4)cc3F)C(=O)N1CCN(Cc1ccccc1)C2=O` (racemic) [Example 37, (9aRS)-2-Benzyl-7-[2,6-difluoro-4-(2-phenylethynyl)phenyl]-9a-methyl-4,9-dihydro-3H-pyrazino[1,2-c]pyrimidine-1,6,8-trione] were, in that order, 97% and 131 nM.
As for `CC12CC(=O)N(c3c(F)cc(C#Cc4ccccc4)cc3F)C(=O)N1CCN(c1ccccc1)C2=O` (racemic) [Example 38, (9aRS)-7-[2,6-Difluoro-4-(2-phenylethynyl)phenyl]-9a-methyl-2-phenyl-4,9-dihydro-3H-pyrazino[1,2-c]pyrimidine-1,6,8-trione], the Emax amounted to 105% and the EC50 was found to be 31 nM.
For `CN1C(=O)N(c2c(F)cc(C#Cc3cccnc3)cc2F)C(=O)CC1(C)c1cccc(Cl)c1` (racemic) [Example 39, (6RS)-6-(3-Chlorophenyl)-3-[2,6-difluoro-4-[2-(3-pyridyl)ethynyl]phenyl]-1,6-dimethyl-hexahydropyrimidine-2,4-dione], the Emax worked out at 112% and the EC50 amounted to 224 nM.
As for `CN1C(=O)N(c2c(F)cc(C#Cc3cccnc3)cc2F)C(=O)CC1(C)c1ccccc1Cl` (racemic) [Example 40, (6RS)-6-(2-Chlorophenyl)-3-[2,6-difluoro-4-[2-(3-pyridyl)ethynyl]phenyl]-1,6-dimethyl-hexahydropyrimidine-2,4-dione], the Emax was found to be 109% and the EC50 is 394 nM.
For the molecule `CN1C(=O)N(c2c(F)cc(C#Cc3cccnc3)cc2F)C(=O)CC1(C)c1ccc(Cl)cc1` (racemic) [Example 41, (6RS)-6-(4-Chlorophenyl)-3-[2,6-difluoro-4-[2-(3-pyridyl)ethynyl]phenyl]-1,6-dimethyl-hexahydropyrimidine-2,4-dione], the Emax was determined as 115% and the EC50 stood at 229 nM.
Turning to `COc1cccc(C2(C)CC(=O)N(c3c(F)cc(C#Cc4cccnc4)cc3F)C(=O)N2C)c1` (racemic) [Example 42, (6RS)-3-[2,6-Difluoro-4-[2-(3-pyridyl)ethynyl]phenyl]-6-(3-methoxyphenyl)-1,6-dimethyl-hexahydropyrimidine-2,4-dione], the Emax was determined as 116% and the half-maximal effective concentration (EC50) is 165 nM.
Take `CC(C)(C)C1(C)CC(=O)N(c2c(F)cc(C#Cc3ccccc3)cc2F)C(=O)N1` (racemic) [Example 43, (6RS)-6-tert-Butyl-3-[2,6-difluoro-4-(2-phenylethynyl)phenyl]-6-methyl-hexahydropyrimidine-2,4-dione]: the Emax is 92% and the concentration giving a half-maximal response (EC50) is 75 nM.
With `CN1C(=O)N(c2c(F)cc(C#Cc3ccccc3)cc2F)C(=O)CC1(C)C(C)(C)C` (racemic) [Example 44, (6RS)-6-tert-Butyl-3-[2,6-difluoro-4-(2-phenylethynyl)phenyl]-1,6-dimethyl-hexahydropyrimidine-2,4-dione], the Emax worked out at 109% and the EC50 came out at 66 nM.
The like results for `CN1C(=O)N(c2ncc(C#Cc3ccccc3)cc2F)C(=O)CC1(C)c1ccccc1` (racemic) [Example 45, (6RS)-3-[3-Fluoro-5-(2-phenylethynyl)-2-pyridyl]-1,6-dimethyl-6-phenyl-hexahydropyrimidine-2,4-dione] were, in that order, 107% and 72 nM.
As for `CN1C(=O)N(c2ncc(C#Cc3ccccc3)cc2C(F)(F)F)C(=O)CC1(C)c1ccccc1` (racemic) [Example 46, (6RS)-1,6-Dimethyl-6-phenyl-3-[5-(2-phenylethynyl)-3-(trifluoromethyl)-2-pyridyl]hexahydropyrimidine-2,4-dione], the Emax was determined as 105% and the EC50 worked out at 116 nM.
The corresponding values for `CN1C(=O)N(c2ccc(C#Cc3ccccc3)cc2Cl)C(=O)CC1(C)c1cccnc1` (racemic) [Example 47, (6RS)-3-[2-Chloro-4-(2-phenylethynyl)phenyl]-1,6-dimethyl-6-(3-pyridyl)hexahydropyrimidine-2,4-dione] are 121% and 132 nM.
The corresponding values for `CCC1(c2ccccc2)CC(=O)N(c2c(F)cc(C#Cc3cccnc3)cc2F)C(=O)N1C` (racemic) [Example 48, (6RS)-3-[2,6-Difluoro-4-[2-(3-pyridyl)ethynyl]phenyl]-6-ethyl-1-methyl-6-phenyl-hexahydropyrimidine-2,4-dione] are 108% and 88 nM.
The like results for `CN1C(=O)N(c2c(F)cc(C#Cc3ccccc3)cc2F)C(=O)CC1(C)c1ccc(Cl)nc1` (racemic) [Example 51, (6RS)-6-(6-Chloro-3-pyridyl)-3-[2,6-difluoro-4-(2-phenylethynyl)phenyl]-1,6-dimethyl-hexahydropyrimidine-2,4-dione] were, in that order, 108% and 88 nM.
Consider `CN1C(=O)N(c2c(F)cc(C#Cc3cccnc3)cc2F)C(=O)CC1(c1ccccc1)C(F)(F)F` (racemic) [Example 72, (6RS)-3-[2,6-Difluoro-4-[2-(3-pyridyl)ethynyl]phenyl]-1-methyl-6-phenyl-6-(trifluoromethyl)hexahydropyrimidine-2,4-dione], for which the Emax was determined as 91% and the EC50 came out at 82 nM.
The like results for `CC12CC(=O)N(c3c(F)cc(C#Cc4ccccc4)cc3Cl)C(=O)N1CCNC2=O` (racemic) [Example 86, (9aRS)-7-[2-Chloro-6-fluoro-4-(2-phenylethynyl)phenyl]-9a-methyl-2,3,4,9-tetrahydropyrazino[1,2-c]pyrimidine-1,6,8-trione] were, in that order, 100% and 108 nM.
Consider `CN1C(=O)N(c2c(F)cc(C#Cc3ccccc3)cc2F)C(=O)C2CCCC21C` (stereo in doubt) [Example 14, (4aRS,7aRS)-3-[2,6-Difluoro-4-(2-phenylethynyl)phenyl]-1,7a-dimethyl-4a,5,6,7-tetrahydrocyclopenta[d]pyrimidine-2,4-dione], for which the Emax came out at 119% and the EC50 came out at 125 nM.
On to `CN1C(=O)N(c2c(F)cc(C#Cc3cccnc3)cc2F)C(=O)CC1(C)c1ccccc1` (stereo in doubt) [Example 19, (6S)-3-[2,6-Difluoro-4-[2-(3-pyridyl)ethynyl]phenyl]-1,6-dimethyl-6-phenyl-hexahydropyrimidine-2,4-dione], for which the Emax is 178% and the EC50 turned out to be 50 nM.
In the case of `CN1C(=O)N(c2c(F)cc(C#Cc3cccnc3)cc2F)C(=O)CC1(C)c1ccccc1` (stereo in doubt) [Example 20, (6R)-3-[2,6-Difluoro-4-[2-(3-pyridyl)ethynyl]phenyl]-1,6-dimethyl-6-phenyl-hexahydropyrimidine-2,4-dione], the Emax was found to be 175% and the EC50 was 239 nM.
Turning to `CN1C(=O)N(c2c(F)cc(C#Cc3ccccc3)cc2F)C(=O)CC1(C)C` [Example 1, 3-[2,6-Difluoro-4-(2-phenylethynyl)phenyl]-1,6,6-trimethyl-hexahydropyrimidine-2,4-dione], the Emax was 191% and the EC50 turned out to be 92 nM.
In the case of `CN1C(=O)N(c2ccc(C#Cc3ccccc3)cc2Cl)C(=O)CC1(C)C` [Example 2, 3-[2-Chloro-4-(2-phenylethynyl)phenyl]-1,6,6-trimethyl-hexahydropyrimidine-2,4-dione], the Emax came out at 107% and the EC50 is 341 nM.
Consider `CN1C(=O)N(c2ccc(C#Cc3ccccc3)cc2Cl)C(=O)CC12CCCCC2` [Example 3, 3-[2-Chloro-4-(2-phenylethynyl)phenyl]-1-methyl-1,3-diazaspiro[5.5]undecane-2,4-dione], for which the Emax was determined as 105% and the EC50 was 245 nM.

The values above are taken from US9725416B2, “Ethynyl derivatives” (Hoffmann-La Roche Inc., priority 2014, dated 2017).
